Laboratory results from PubChem BioAssay AID488792 (NMMLSC, 2010).
pEC50: −log10 of the molar value. Activity calls are given as the source filed them.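 How the source made its calls: active means EC50 at or below 33 microM; inactive means the rest.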

tested on: S. cerevisiae AGP1-GFP strain, flow cytometry fluorescence, 3 h; test: yeast AGP1-GFP modulation, KU SAR set, cell-based, flow cytometry, S. cerevisiae, SAR follow-up (AID 488792)

SMILES | EC50 | pEC50
O=[N+]([O-])c1cc(Cl)c2cccnc2c1O | 62 µM (inactive) | –
O=[N+]([O-])c1ccc(O)c2ncccc12 | – | 5.22
O=C(OCC(=O)N1CCN(C(=O)c2ccco2)CC1)c1cc(-c2cccc(Br)c2)nc2ccccc12 | 36.5 µM (inactive) | –
CC(C)(C)C(=O)C(Cl)C(=O)Nc1ccccc1 (stereo not given) | – | 5.68
O=C(OCn1ncc(Br)c(Br)c1=O)c1c(F)cccc1F | – | 5.61
COc1cccc(Nc2nc(N)c([N+](=O)[O-])c(Nc3cccc(F)c3)n2)c1 | 35 µM (inactive) | –
O=C(Oc1c(Cl)cc(Cl)c2cccnc12)c1cccc([N+](=O)[O-])c1 | 34.8 µM (inactive) | –
Cc1ccc(-c2nn(C(C)(C)C)c3ncnc(N)c23)cc1 | 300 µM (inactive) | –
CNc1nc(N)c([N+](=O)[O-])c(Nc2cccc(F)c2)n1 | – | 4.97
O=[N+]([O-])c1cc(O)c2ncccc2c1 | 34.3 µM (inactive) | –
O=C(c1ccc(C(=O)N2CCCc3ccccc32)s1)N1CCCc2ccccc21 | – | 6.34
CC(C)(C)n1nc(-c2ccc(F)cc2)c2c(N)ncnc21 | 174 µM (inactive) | –
CC(Oc1ccc(Br)cc1)C(=O)Nc1nc(-c2ccccn2)cs1 (stereo not given) | 102 µM (inactive) | –
Cc1cc(C(=O)Nc2nc(-c3ccccn3)cs2)ccc1[N+](=O)[O-] | 57.5 µM (inactive) | –
O=C(Nc1nc(-c2ccccn2)cs1)C1COc2ccccc2O1 (stereo not given) | 72.9 µM (inactive) | –
Cc1ccc(C(c2cc(Cl)c3cccnc3c2O)N2CCN(C)CC2)cc1 (stereo not given) | 98.6 µM (inactive) | –
O=C(OCC(=O)N1CCN(C(=O)c2ccco2)CC1)c1cc(-c2ccc(F)cc2)nc2ccccc12 | – | 5.90
CN1CCN(C(=O)c2cc(COc3c(F)cccc3F)on2)CC1c1ccccc1 (stereo not given) | – | 4.85
CCOC(=O)CCS(=O)(=O)c1nc(-c2ccccc2)cc(C(F)(F)F)n1 | – | 5.85
Cc1ccc2nc(Cl)c3nnnn3c2c1 | – | 6.62
CC(=O)SC(C[N+](=O)[O-])c1cn(C(C)=O)c2ccccc12 (stereo not given) | 60.4 µM (inactive) | –
Cn1ncc(S(=O)(=O)Cc2ccccc2)c(Cl)c1=O | 105 µM (inactive) | –

Now from value to compound:

EC50 | pEC50 | SMILES
137 µM (inactive) | – | CC(=O)Nc1ncnc2c1c(-c1ccc(Cl)cc1)nn2C(C)(C)C
34.5 µM (inactive) | – | CC(C)(C)C(=O)NC(=S)NNC(=O)c1ccc(-c2ccccc2)cc1
– | 5.76 | CCOC(=O)CS(=O)(=O)c1nc(-c2ccccc2)cc(C(F)(F)F)n1
140 µM (inactive) | – | Nc1nc(Nc2ccccc2)nc(Nc2cccc(F)c2)c1[N+](=O)[O-]
– | 4.49 | CCN(CC)C(=O)Oc1ccnc2cc(Cl)ccc12
– | 5.37 | CC(=O)c1ccc(N2CCN(C(=O)c3ccc(Br)cc3)CC2)c(F)c1
– | 5.35 | Cc1ccc(S(=O)(=O)c2ccc([N+](=O)[O-])cn2)cc1
– | 4.97 | CC(C)(C)n1nc(-c2ccc(Cl)cc2)c2c(N)ncnc21
312 µM (inactive) | – | Nc1nc(Nc2cccc(Cl)c2)nc(Nc2cccc(F)c2)c1[N+](=O)[O-]
34.1 µM (inactive) | – | C/C(=N\NC(=O)c1cccc(Br)c1)c1ccccn1
– | 6.52 | COC(=O)CCS(=O)(=O)c1nc(-c2ccccc2)cc(C(F)(F)F)n1
263 µM (inactive) | – | Nc1cc(Oc2cccc(Cl)c2)nc(NCc2ccccc2)n1
63.1 µM (inactive) | – | CCC(C)Nc1nc(N)c([N+](=O)[O-])c(Nc2cccc(F)c2)n1 (stereo not given)
